For the first assay, the target named is Transient receptor potential cation channel subfamily V member 1 (Homo sapiens, UniProt Q8NER1). Nature of the assay: Ca2+ Influx Functional Assay for the Determination of in Vitro Activity. To be noted: pH 7.4; 22 °C. The protocol:
(§1) The functional antagonist activity of compounds at the TRPV1 receptor was determined with a Ca2+ influx assay by measuring the effect on capsaicin (0.05 uM) evoked increase in intracellular Ca2+ levels using cells stably expressing recombinant human TRPV1. All compounds were tested over an 11-point half-log concentration range. The fluorescent Ca2+ chelating dye fluo-4 was used as an indicator of the relative levels of Ca2+ in a 96-well format using a fluorescence imaging plate reader. Fluorescence readings were made at 1-5 s intervals over the 240 s course of the experimental run. The peak increase in relative fluorescence units was calculated and expressed as a percentage of the 0.05 uM capsaicin (control) response. Curve fits of the data were solved using a four-parameter logistic Hill equation in GraphPad Prism, and IC50 values were calculated.
Transient receptor potential cation channel subfamily V member 1 (Homo sapiens, UniProt Q8NER1), sequence (Q8NER1 whole entry): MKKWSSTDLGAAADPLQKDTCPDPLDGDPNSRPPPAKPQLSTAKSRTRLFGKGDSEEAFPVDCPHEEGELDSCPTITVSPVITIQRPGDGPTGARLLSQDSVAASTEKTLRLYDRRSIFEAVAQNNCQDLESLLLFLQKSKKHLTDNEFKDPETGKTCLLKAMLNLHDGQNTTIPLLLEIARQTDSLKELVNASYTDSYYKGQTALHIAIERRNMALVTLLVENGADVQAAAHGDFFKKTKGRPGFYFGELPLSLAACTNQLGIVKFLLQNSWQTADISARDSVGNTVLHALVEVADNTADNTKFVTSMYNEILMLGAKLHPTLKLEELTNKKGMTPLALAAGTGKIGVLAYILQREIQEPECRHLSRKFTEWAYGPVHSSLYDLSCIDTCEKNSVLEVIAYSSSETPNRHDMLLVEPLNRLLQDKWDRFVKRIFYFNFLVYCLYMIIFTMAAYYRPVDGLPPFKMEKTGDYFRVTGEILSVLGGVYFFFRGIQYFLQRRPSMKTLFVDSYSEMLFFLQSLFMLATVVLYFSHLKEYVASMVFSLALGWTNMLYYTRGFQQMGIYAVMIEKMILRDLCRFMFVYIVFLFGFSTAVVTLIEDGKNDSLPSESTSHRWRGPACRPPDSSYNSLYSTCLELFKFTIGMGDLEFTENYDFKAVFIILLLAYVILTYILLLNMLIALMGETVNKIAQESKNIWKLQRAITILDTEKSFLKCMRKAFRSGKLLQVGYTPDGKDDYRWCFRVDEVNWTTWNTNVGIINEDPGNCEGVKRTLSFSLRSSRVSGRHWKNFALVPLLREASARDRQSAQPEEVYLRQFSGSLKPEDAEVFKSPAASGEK
What is called EC50 is the concentration that produces a half-maximal response. Lower therefore signals greater potency. Molecule `O=C(NCCc1ccc(C(F)(F)F)cc1)Nc1cccc2cnccc12` came in with a half-maximal effective concentration (EC50) of 19 nM. Same read-out and setting: to `O=C(NCCc1cccc(C(F)(F)F)c1)Nc1cccc2cnccc12` belongs 20 nM. Same read-out and setting: with `O=C(NCc1ccc(C(F)(F)F)cc1)Nc1cccc2cnccc12` [1-isoquinolin-5-yl-3-{[4-(trifluoromethyl)phenyl]methyl}urea] the figure was 4 nM.

With `CSc1cccc(NC(=O)Nc2cccc3ccc(O)cc23)c1` [3-(7-hydroxynaphthalen-1-yl)-1-[3-(methylsulfanyl)phenyl]urea], a half-maximal effect (EC50) was put at 22 nM. For `O=C(NCc1cccc(C(F)(F)F)c1)Nc1cccc2cnccc12` [3-isoquinolin-5-yl-1-{[3-(trifluoromethyl)phenyl]methyl}urea], it took 51 nM to reach a half-maximal effect (EC50).

In another assay the target is Transient receptor potential cation channel subfamily V member 1 (Rattus norvegicus, UniProt O35433). Described as above. To be noted: pH 7.4; 22 °C. The protocol: as §1
Transient receptor potential cation channel subfamily V member 1 (Rattus norvegicus, UniProt O35433), sequence (O35433 whole entry): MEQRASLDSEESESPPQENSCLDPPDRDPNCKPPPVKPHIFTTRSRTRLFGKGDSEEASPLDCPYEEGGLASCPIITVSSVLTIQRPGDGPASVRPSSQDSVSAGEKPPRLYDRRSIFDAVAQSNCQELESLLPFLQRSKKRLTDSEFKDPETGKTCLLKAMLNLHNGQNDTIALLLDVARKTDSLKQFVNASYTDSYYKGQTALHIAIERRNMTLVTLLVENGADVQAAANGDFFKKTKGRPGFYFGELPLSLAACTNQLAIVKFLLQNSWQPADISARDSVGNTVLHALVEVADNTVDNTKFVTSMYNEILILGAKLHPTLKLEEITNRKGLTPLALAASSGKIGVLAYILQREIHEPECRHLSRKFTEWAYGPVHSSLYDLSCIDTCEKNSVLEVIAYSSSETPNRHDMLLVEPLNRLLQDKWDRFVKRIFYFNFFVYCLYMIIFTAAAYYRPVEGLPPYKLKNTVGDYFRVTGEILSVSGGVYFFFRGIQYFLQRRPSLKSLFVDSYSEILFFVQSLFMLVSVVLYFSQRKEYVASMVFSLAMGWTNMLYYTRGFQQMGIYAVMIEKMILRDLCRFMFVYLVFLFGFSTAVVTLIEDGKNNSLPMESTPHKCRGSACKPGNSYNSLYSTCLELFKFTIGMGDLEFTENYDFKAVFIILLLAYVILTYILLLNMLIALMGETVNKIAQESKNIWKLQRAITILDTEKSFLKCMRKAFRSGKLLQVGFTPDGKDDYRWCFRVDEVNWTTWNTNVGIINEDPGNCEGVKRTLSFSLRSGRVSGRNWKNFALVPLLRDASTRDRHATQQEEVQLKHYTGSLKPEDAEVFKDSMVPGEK
`O=C(NCc1ccc(C(F)(F)F)cc1)Nc1cccc2cnccc12` [1-isoquinolin-5-yl-3-{[4-(trifluoromethyl)phenyl]methyl}urea] displayed an EC50 of 24 nM.

(Values after BindingDB's records for doi:10.1021/jm0492958 (Abbott Laboratories, 2005).)
